Patent US8916567B2, “Certain crystalline hydrates, pharmaceutical compositions thereof and methods for preparation and use thereof” (Universal Technology Alliance, Inc., priority 2009, dated 2014)
Converted amounts (≈) assume the structure as drawn. Where two headings read alike, the source gives them in different places.

Tests used:
Type in all cases: cell-based
S. epidermidis MRSE = test: Minimum inhibitory concentration (MIC) in vitro, agar dilution method; conditions: for MIC: read-out: MIC
Description: (§1) Hydrates Samples: • The 1/2 hydrates prepared according to Example 2; • Content (purity % wt): 99.0%; • The 1/12 hydrates prepared according to Example 253; • Content (purity % wt): 98.9%; • The 2/7 hydrates prepared according to Example 106; • Content (purity % wt): 98.8%; • The 2/5 hydrates prepared according to Example 162; • Content (purity % wt): 99.0%; • The 3/4 hydrates prepared according to Example 337; • Content (purity % wt): 98.8%; • Preparation: dissolved in DMSO, and further diluted with sterile distilled water to desired concentration. • The hydrates samples were supplied by Sichuan Beilike Biotechnology LTD.
(§2) Anhydrous Sample: • The anhydrous compounds prepared according to Example 1. • Content (purity % wt): 98.6%; • Preparation: dissolved in DMSO, and further diluted with sterile distilled water to desired concentration; • The anhydrous sample was supplied by Sichuan Beilike Biotechnology LTD.
(§3) Control Samples • Vancomycin: provided by Sichuan Beilike Biotechnology LTD, purchased from Eli Lilly Japan K.K. • Lot No.: WM16151 (production date: Apr. 10, 2007, expiration date: Apr. 9, 2009). • Specification: 500 mg/bottle; solubility (physicochemical properties): soluble in water. • Linezolid (LZ): provided by Sichuan Beilike Biotechnology LTD.
(§4) Bacteria Strains • Clinically isolated strains: clinically isolated bacterial pathogens collected in Sichuan and Beijing areas from March 2007 to May 2008. • Species include: Staphylococcus aureus MRSA, Staphylococcus aureus MSSA, S. epidermidis MRSE, S. epidermidis MSSE, E. feacalis, and E. feacium, a total of 51 strains. • Quality control strains: Staphylococcus aureus […] strain kept in Sichuan Industrial Institute of Antibiotics, purchased from the medical testing center of the Ministry of Health, China.
(§5) Experimental Method: • Measurement of the minimum inhibitory concentration (MIC) in vitro: • The minimum inhibitory concentration (MIC) of each test sample against test strains was measured by using the agar dilution method recommended by the U.S. National Committee for Clinical Laboratory Standards (CLSI/NCCIs).
(§6) Based on the CLSI/NCCL's testing standard with respect to vancomycin and linezolid (see Table 6), the minimum inhibitory concentration (MIC) values of every strain were reported, and the MIC50 (the concentration that inhibits 50% of the different strains of bacteria), MIC90 (the concentration that inhibits 90% of the different strains of bacteria), and MICrange (the range of the MIC value of the tested strains) were observed.

S. epidermidis MSSE = test: as above; conditions: for MIC: read-out: MIC
Description: as §1, §2, §3, §4, §5, §6

E. feacalis = test: as above
Description: as §1, §2, §3, §4, §5, §6

E. feacium = test: as above
Description: as §1, §2, §3, §4, §5, §6

[1] = test system: Staphylococcus aureus MSSA; test: as above; conditions: for MIC: read-out: MIC
Description: as §1, §2, §3, §4, §5, §6

[2] = test system: Staphylococcus aureus MRSA; test: as above; conditions: for MIC: read-out: MIC
Description: as §1, §2, §3, §4, §5, §6

Staphylococcus aureus = test: Minimum inhibitory concentration (MIC) in vitro, agar dilution method, quality control strain; conditions: Staphylococcus aureus, ATCC27853, strain S. AT C C25923 (Table 7 No. 1); read-out: MIC
Description: as §1, §2, §3, §4, §5, §6

## CC(=O)NC[C@H]1CN(c2ccc(N3CCOCC3)c(F)c2)C(=O)O1 [Linezolid, reference compound]
S. epidermidis MRSE; S. ep MRSE (10 strains), clinically isolated
  MICrange: 0.5 to 2 µg/mL
S. epidermidis MRSE; Staphylococcus epidermidis, MRSE, S. ep MRSE (10 strains), clinically isolated, read-out: MIC50
  MIC50: 1 µg/mL (≈ 2.96 µM)
S. epidermidis MRSE; Staphylococcus epidermidis, MRSE, S. ep MRSE (10 strains), clinically isolated, read-out: MIC90
  MIC90: 2 µg/mL (≈ 5.93 µM)
S. epidermidis MRSE; Staphylococcus epidermidis, MRSE, strain S. ep MRSE4 (Table 8 No. 9)
  MIC: 1 µg/mL (≈ 2.96 µM)
S. epidermidis MRSE; Staphylococcus epidermidis, MRSE, strain S. ep MRSE20 (Table 8 No. 6)
  MIC: 1 µg/mL (≈ 2.96 µM)
S. epidermidis MRSE; Staphylococcus epidermidis, MRSE, strain S. ep MRSE87 (Table 8 No. 13)
  MIC: 2 µg/mL (≈ 5.93 µM)
S. epidermidis MRSE; Staphylococcus epidermidis, MRSE, strain S. ep MRSE90 (Table 8 No. 10)
  MIC: 2 µg/mL (≈ 5.93 µM)
S. epidermidis MRSE; Staphylococcus epidermidis, MRSE, strain S. ep MRSE101 (Table 8 No. 7)
  MIC: 0.5 µg/mL (≈ 1.48 µM)
S. epidermidis MRSE; Staphylococcus epidermidis, MRSE, strain S. ep MRSE105 (Table 8 No. 11)
  MIC: 1 µg/mL (≈ 2.96 µM)
S. epidermidis MRSE; Staphylococcus epidermidis, MRSE, strain S. ep MRSE140 (Table 8 No. 14)
  MIC: 1 µg/mL (≈ 2.96 µM)
S. epidermidis MRSE; Staphylococcus epidermidis, MRSE, strain S. ep MRSE142 (Table 8 No. 12)
  MIC: 1 µg/mL (≈ 2.96 µM)
S. epidermidis MRSE; Staphylococcus epidermidis, MRSE, strain S. ep MRSE210 (Table 8 No. 15)
  MIC: 1 µg/mL (≈ 2.96 µM)
S. epidermidis MRSE; Staphylococcus epidermidis, MRSE, strain S. ep MRSE211 (Table 8 No. 8)
  MIC: 1 µg/mL (≈ 2.96 µM)
S. epidermidis MSSE; S. ep MSSE (10 strains), clinically isolated
  MICrange: 0.5 to 2 µg/mL
S. epidermidis MSSE; Staphylococcus epidermidis, S. ep MSSE (10 strains), clinically isolated, read-out: MIC50
  MIC50: 1 µg/mL (≈ 2.96 µM)
S. epidermidis MSSE; Staphylococcus epidermidis, S. ep MSSE (10 strains), clinically isolated, read-out: MIC90
  MIC90: 2 µg/mL (≈ 5.93 µM)
S. epidermidis MSSE; Staphylococcus epidermidis, strain S. ep MSSE87 (Table 7 No. 23)
  MIC: 0.5 µg/mL (≈ 1.48 µM)
S. epidermidis MSSE; Staphylococcus epidermidis, strain S. ep MSSE88 (Table 8 No. 5)
  MIC: 2 µg/mL (≈ 5.93 µM)
S. epidermidis MSSE; Staphylococcus epidermidis, strain S. ep MSSE113 (Table 7 No. 24)
  MIC: 1 µg/mL (≈ 2.96 µM)
S. epidermidis MSSE; Staphylococcus epidermidis, strain S. ep MSSE116 (Table 7 No. 25)
  MIC: 0.5 µg/mL (≈ 1.48 µM)
S. epidermidis MSSE; Staphylococcus epidermidis, strain S. ep MSSE118 (Table 8 No. 2)
  MIC: 2 µg/mL (≈ 5.93 µM)
S. epidermidis MSSE; Staphylococcus epidermidis, strain S. ep MSSE119 (Table 7 No. 27)
  MIC: 1 µg/mL (≈ 2.96 µM)
S. epidermidis MSSE; Staphylococcus epidermidis, strain S. ep MSSE137 (Table 8 No. 4)
  MIC: 2 µg/mL (≈ 5.93 µM)
S. epidermidis MSSE; Staphylococcus epidermidis, strain S. ep MSSE140 (Table 8 No. 3)
  MIC: 2 µg/mL (≈ 5.93 µM)
S. epidermidis MSSE; Staphylococcus epidermidis, strain S. ep MSSE142 (Table 7 No. 26)
  MIC: 1 µg/mL (≈ 2.96 µM)
S. epidermidis MSSE; Staphylococcus epidermidis, strain S. ep MSSE153 (Table 8 No. 1)
  MIC: 1 µg/mL (≈ 2.96 µM)
E. feacalis
  MIC50: 1 µg/mL (≈ 2.96 µM)
  MIC90: 2 µg/mL (≈ 5.93 µM)
E. feacalis; E. feacalis (5 strains), clinically isolated
  MICrange: 1 to 2 µg/mL
E. feacalis; strain Efa 54 (Table 8 No. 20)
  MIC: 1 µg/mL (≈ 2.96 µM)
E. feacalis; strain Efa 116 (Table 8 No. 16)
  MIC: 1 µg/mL (≈ 2.96 µM)
E. feacalis; strain Efa 907 (Table 8 No. 19)
  MIC: 1 µg/mL (≈ 2.96 µM)
E. feacalis; strain Efa 3006 (Table 8 No. 18)
  MIC: 1 µg/mL (≈ 2.96 µM)
E. feacalis; strain Efa 33748 (Table 8 No. 17)
  MIC: 2 µg/mL (≈ 5.93 µM)
E. feacium
  MIC50: 2 µg/mL (≈ 5.93 µM)
  MIC90: 4 µg/mL (≈ 11.9 µM)
E. feacium; E. feacium (5 strains), clinically isolated
  MICrange: 1 to 4 µg/mL
E. feacium; strain Efm 98 (Table 8 No. 21)
  MIC: 1 µg/mL (≈ 2.96 µM)
E. feacium; strain Efm 171 (Table 8 No. 25)
  MIC: 2 µg/mL (≈ 5.93 µM)
E. feacium; strain Efm 197 (Table 8 No. 22)
  MIC: 2 µg/mL (≈ 5.93 µM)
E. feacium; strain Efm N3 (Table 8 No. 23)
  MIC: 1 µg/mL (≈ 2.96 µM)
E. feacium; strain Efm N4 (Table 8 No. 24)
  MIC: 4 µg/mL (≈ 11.9 µM)
[1]; S. MSSA (11 strains), clinically isolated
  MICrange: 1 to 2 µg/mL
[1]; Staphylococcus aureus, MSSA, S. MSSA (11 strains), clinically isolated, read-out: MIC50
  MIC50: 2 µg/mL (≈ 5.93 µM)
[1]; Staphylococcus aureus, MSSA, S. MSSA (11 strains), clinically isolated, read-out: MIC90
  MIC90: 2 µg/mL (≈ 5.93 µM)
[1]; Staphylococcus aureus, MSSA, strain S. MSSA 123 (Table 7 No. 3)
  MIC: 2 µg/mL (≈ 5.93 µM)
[1]; Staphylococcus aureus, MSSA, strain S. MSSA 187 (Table 7 No. 7)
  MIC: 2 µg/mL (≈ 5.93 µM)
[1]; Staphylococcus aureus, MSSA, strain S. MSSA 195 (Table 7 No. 6)
  MIC: 2 µg/mL (≈ 5.93 µM)
[1]; Staphylococcus aureus, MSSA, strain S. MSSA 195 (Table 7 No. 12)
  MIC: 2 µg/mL (≈ 5.93 µM)
[1]; Staphylococcus aureus, MSSA, strain S. MSSA 201 (Table 7 No. 11)
  MIC: 2 µg/mL (≈ 5.93 µM)
[1]; Staphylococcus aureus, MSSA, strain S. MSSA 232 (Table 7 No. 2)
  MIC: 2 µg/mL (≈ 5.93 µM)
[1]; Staphylococcus aureus, MSSA, strain S. MSSA 275 (Table 7 No. 10)
  MIC: 2 µg/mL (≈ 5.93 µM)
[1]; Staphylococcus aureus, MSSA, strain S. MSSA 466 (Table 7 No. 8)
  MIC: 1 µg/mL (≈ 2.96 µM)
[1]; Staphylococcus aureus, MSSA, strain S. MSSA 519 (Table 7 No. 9)
  MIC: 2 µg/mL (≈ 5.93 µM)
[1]; Staphylococcus aureus, MSSA, strain S. MSSA 520 (Table 7 No. 4)
  MIC: 2 µg/mL (≈ 5.93 µM)
[1]; Staphylococcus aureus, MSSA, strain S. MSSA 580 (Table 7 No. 5)
  MIC: 2 µg/mL (≈ 5.93 µM)
[2]; S. MRSA (10 strains), clinically isolated
  MICrange: 1 to 2 µg/mL
[2]; Staphylococcus aureus, MRSA, S. MRSA (10 strains), clinically isolated, read-out: MIC50
  MIC50: 2 µg/mL (≈ 5.93 µM)
[2]; Staphylococcus aureus, MRSA, S. MRSA (10 strains), clinically isolated, read-out: MIC90
  MIC90: 2 µg/mL (≈ 5.93 µM)
[2]; Staphylococcus aureus, MRSA, strain S. MRSA 29 (Table 7 No. 15)
  MIC: 1 µg/mL (≈ 2.96 µM)
[2]; Staphylococcus aureus, MRSA, strain S. MRSA 101 (Table 7 No. 14)
  MIC: 1 µg/mL (≈ 2.96 µM)
[2]; Staphylococcus aureus, MRSA, strain S. MRSA 201 (Table 7 No. 13)
  MIC: 2 µg/mL (≈ 5.93 µM)
[2]; Staphylococcus aureus, MRSA, strain S. MRSA B27 (Table 7 No. 21)
  MIC: 2 µg/mL (≈ 5.93 µM)
[2]; Staphylococcus aureus, MRSA, strain S. MRSA B105 (Table 7 No. 17)
  MIC: 2 µg/mL (≈ 5.93 µM)
[2]; Staphylococcus aureus, MRSA, strain S. MRSA B143 (Table 7 No. 19)
  MIC: 1 µg/mL (≈ 2.96 µM)
[2]; Staphylococcus aureus, MRSA, strain S. MRSA B151 (Table 7 No. 20)
  MIC: 2 µg/mL (≈ 5.93 µM)
[2]; Staphylococcus aureus, MRSA, strain S. MRSA B164 (Table 7 No. 16)
  MIC: 2 µg/mL (≈ 5.93 µM)
[2]; Staphylococcus aureus, MRSA, strain S. MRSA B199 (Table 7 No. 22)
  MIC: 2 µg/mL (≈ 5.93 µM)
[2]; Staphylococcus aureus, MRSA, strain S. MRSA B617 (Table 7 No. 18)
  MIC: 1 µg/mL (≈ 2.96 µM)
Staphylococcus aureus
  MIC: 2 µg/mL (≈ 5.93 µM)
